{"source": "patent US7943638B2", "about": "“Carboxamide compound and use of the same” (Sumitomo Chemical Company, Limited, priority 2005, dated 2011)", "system": "wheat scab (Fusarium culmorum)", "test": "Wheat scab (Fusarium culmorum) controlling effect test (preventive effect)", "format": "in vivo", "settings": "500 ppm flowable preparation, foliage spray on wheat (Shirogane komugi), 23° C. high humidity 4 days, then 23° C. greenhouse 3 days", "protocol": "A plastic pot was charged with a sand loam, and a wheat (Name of plant variety: Shirogane komugi) was seeded, and was grown for 8 days in a greenhouse. Each flowable preparation of the present compound 4 which had been obtained according to Preparation Example 6 was diluted with water to a predetermined concentration (500 ppm) to prepare a spraying solution. Each spraying solution was foliage-sprayed so that the solution was sufficiently adhered to the above adhered to wheat leaves. After spraying, the wheat was air-dried to an extent that the spraying solution on the leaves was dried, then a spore suspension of wheat scab (Fusarium culmorum) (containing about 2000000 spores per 1 ml of the suspension) was spraying-inoculated (at a ratio of about 2 ml per one plant). After inoculation, the wheat was placed at 23° C. under high humidity for 4 days, then placed in a 23° C. greenhouse for 3 days. Thereafter, the controlling effect was investigated.\nAs a result, an area of a lesion in a plant treated with the present compound 4 was 10% or less of an area of a lesion in a non-treated plant."}
{"smiles": "Cc1cc(O)c(C(=O)Nc2cccnc2)c(=O)n1C", "note": "[present compound 4, N-(3-pyridyl)-1,6-dimethyl-4-hydroxy-2-oxo-1,2-dihydropyridine-3-carboxamide]", "values": [{"measurement": "area of a lesion in a treated plant relative to area of a lesion in a non-treated plant", "result": "≤ 10", "unit": "%"}]}
